Molecular target: T1, CYP3A4 (Homo sapiens, UniProt P08684)
Assay: Inhibition of CYP3A4 (unknown origin) assessed as inhibition of conversion of beetle D-luciferin to D-luciferin at 10 uM by luminescent P450-Glo assay relative to control
Type: ADME
Settings: probe beetle D-luciferin

T1 sequence (P08684 whole entry): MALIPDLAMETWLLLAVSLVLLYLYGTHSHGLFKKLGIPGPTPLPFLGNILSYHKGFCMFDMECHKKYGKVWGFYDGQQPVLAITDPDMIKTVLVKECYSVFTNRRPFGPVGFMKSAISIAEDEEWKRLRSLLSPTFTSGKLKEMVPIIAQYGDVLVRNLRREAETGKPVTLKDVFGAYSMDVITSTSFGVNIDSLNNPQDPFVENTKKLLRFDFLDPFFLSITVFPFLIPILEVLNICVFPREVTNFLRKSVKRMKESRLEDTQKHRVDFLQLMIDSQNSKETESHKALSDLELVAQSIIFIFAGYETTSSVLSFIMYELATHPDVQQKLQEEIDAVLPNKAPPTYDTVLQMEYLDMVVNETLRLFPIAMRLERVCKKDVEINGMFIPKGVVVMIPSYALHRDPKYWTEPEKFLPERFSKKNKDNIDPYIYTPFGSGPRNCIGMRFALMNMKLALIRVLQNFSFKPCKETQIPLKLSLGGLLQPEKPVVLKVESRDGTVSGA

| Structure (SMILES) | inhibition at 10 µM |
| --- | --- |
| Clc1ccc(OCCCCCCN2CCCCCC2)cc1 | 23% |
| CC1CCCN(CCCCCCCOc2ccc(Cl)cc2)C1 (stereo not drawn) | 4% |
| c1ccc2c(OCCCCCCN3CCCCCC3)cccc2c1 | 46% |
| CCC(C)(C)c1ccc(OCCCCCCCN2CCCCCC2)cc1 | 38% |
| CCC(C)(C)c1ccc(OCCCCCCCCN2CCCCCC2)cc1 | 41% |
| c1ccc(-c2ccc(OCCCCCCN3CCCCCC3)cc2)cc1 | 13% |
| c1ccc(-c2cccc(OCCCCCCN3CCCCCC3)c2)cc1 | 19% |
| Fc1ccc(OCCCCCCN2CCCCCC2)cc1 | 17% |

Continued, values first:

| inhibition at 10 µM | Structure (SMILES) |
| --- | --- |
| 61% | CC(C)(C)c1ccc(OCCCN2CCCCC2)cc1 |
| 8% | CCC(C)(C)c1ccc(OCCCN2CCCCC2)cc1 |
| 5% | CCC(C)(C)c1ccc(OCCCCN2CCCCCC2)cc1 |
| 13% | CCC(C)(C)c1ccc(OCCCN2CCCCCC2)cc1 |
| 19% | CC(C)(C)c1ccc(OCCCCCCN2CCCCCC2)cc1 |

Molecular target: Cytochrome P450 3A4 (Homo sapiens, UniProt P08684)
Assay: Activation of CYP3A4 (unknown origin) assessed as activation of conversion of beetle D-luciferin to D-luciferin at 10 uM by luminescent P450-Glo assay relative to control
Type: ADME
Settings: not given

Chain of Cytochrome P450 3A4 (P08684 whole entry): as above

| Structure (SMILES) | Activity |
| --- | --- |
| CCC(C)(C)c1ccc(OCCCCCCN2CCCCCC2)cc1 | 18% |
| O=C(c1ccccc1)c1cccc(OCCCCCCN2CCCCCC2)c1 | 713% |

Molecular target: T1, CYP3A4
Assay: Activation of human recombinant CYP3A4 assessed as activation of conversion of beetle D-luciferin to D-luciferin at 10 uM preincubated for 10 mins followed by substrate addition and measured after 50 mins in presence of NADPH by CYP450-Glo assay relative to control
Type: ADME
Settings: recombinant CYP3A4, probe beetle D-luciferin, read-out: Activity

| Structure (SMILES) | activity at 50 min, 10 µM |
| --- | --- |
| c1ccc2cc(OCCCCCCN3CCCCCC3)ccc2c1 | 14% |

Molecular target: T2, Histamine H3 receptor (Homo sapiens, UniProt Q9Y5N1)
Assay: Displacement of [3H]-N-alpha-methylhistamine from human recombinant full length H3R expressed in HEK293 cell membranes by Microbeta scintillation counting method
Settings: not given

T2 sequence (Q9Y5N1 whole entry): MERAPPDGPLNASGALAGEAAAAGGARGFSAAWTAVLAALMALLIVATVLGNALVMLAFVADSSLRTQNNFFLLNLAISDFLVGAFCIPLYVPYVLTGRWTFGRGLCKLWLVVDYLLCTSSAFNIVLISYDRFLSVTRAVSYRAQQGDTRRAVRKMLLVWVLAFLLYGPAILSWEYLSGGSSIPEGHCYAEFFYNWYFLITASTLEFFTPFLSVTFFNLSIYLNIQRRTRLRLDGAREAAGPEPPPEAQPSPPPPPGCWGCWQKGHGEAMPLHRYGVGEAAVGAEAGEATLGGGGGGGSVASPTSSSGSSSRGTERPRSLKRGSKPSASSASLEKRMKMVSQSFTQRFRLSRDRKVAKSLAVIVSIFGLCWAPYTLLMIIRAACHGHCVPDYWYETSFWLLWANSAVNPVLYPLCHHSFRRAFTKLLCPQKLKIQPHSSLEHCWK

| Structure (SMILES) | Ki |
| --- | --- |
| O=C(c1ccccc1)c1cccc(OCCCCCCN2CCCCCC2)c1 | 41 nM |

Molecular target: T2, Histamine H3 receptor
Assay: Binding affinity to H3R (unknown origin)
Settings: not given

| Structure (SMILES) | Ki |
| --- | --- |
| CC(C)(C)c1ccc(OCCCCCCN2CCCCCC2)cc1 | 829 nM |

From ChEMBL document CHEMBL4619729, “In silico and in vitro studies on interaction of novel non-imidazole histamine H3R antagonists with CYP3A4” (Bioorg Med Chem Lett, 2020)
